These results are taken from article PMC4280904 (Journal of Veterinary Pharmacology and Therapeutics, 2014).

For one data set, the system named is plasma protein. Briefly: In vitro plasma protein binding. The settings on record: male, human. The format is in vitro ADME.
The target in the next data set is CYP1A1 (Homo sapiens, UniProt P04798). The data set can be described thus: In vitro enzyme inhibition, recombinant CYP, fluorescent metabolites. In kind it is in vitro ADME.
The target of another data set is CYP2C9 (Homo sapiens, UniProt P11712). Described as above.
A further data set concerns CYP3A. Briefly: In vivo enzyme induction: erythromycin N-demethylase. Further details: species or system Wistar rats. The settings on record: rats, 3–100 mg/kg p.o. once daily 7 days.
A further data set concerns the target CYP1A2 (Homo sapiens, UniProt P05177). Briefly: In vitro enzyme inhibition, recombinant CYP, fluorescent metabolites. In kind it is in vitro ADME.
A further data set deals with plasma proteins. Briefly: Reversibility of protein binding. The format is in vitro ADME. The settings on record: human plasma, incubation up to 2 h at 37 °C, TCA precipitation.
The target of the next data set is CYP2D6 (Homo sapiens, UniProt P10635). Briefly: In vitro enzyme inhibition, recombinant CYP, fluorescent metabolites. In kind it is in vitro ADME.
Chain of CYP2D6 (P10635 whole entry): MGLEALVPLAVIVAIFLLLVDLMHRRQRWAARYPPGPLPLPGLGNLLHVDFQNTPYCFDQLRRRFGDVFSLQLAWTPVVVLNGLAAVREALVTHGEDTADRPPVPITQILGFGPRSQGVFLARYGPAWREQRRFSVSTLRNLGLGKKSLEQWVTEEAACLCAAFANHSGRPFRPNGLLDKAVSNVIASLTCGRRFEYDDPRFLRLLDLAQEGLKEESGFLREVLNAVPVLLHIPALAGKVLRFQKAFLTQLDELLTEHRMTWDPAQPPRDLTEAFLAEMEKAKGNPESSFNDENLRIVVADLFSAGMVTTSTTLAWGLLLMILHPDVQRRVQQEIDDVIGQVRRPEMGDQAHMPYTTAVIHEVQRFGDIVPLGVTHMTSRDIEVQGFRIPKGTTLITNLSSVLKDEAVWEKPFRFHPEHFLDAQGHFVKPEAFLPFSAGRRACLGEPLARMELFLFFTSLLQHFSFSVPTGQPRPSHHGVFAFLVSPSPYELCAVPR

Chain of CYP1A2 (P05177 whole entry): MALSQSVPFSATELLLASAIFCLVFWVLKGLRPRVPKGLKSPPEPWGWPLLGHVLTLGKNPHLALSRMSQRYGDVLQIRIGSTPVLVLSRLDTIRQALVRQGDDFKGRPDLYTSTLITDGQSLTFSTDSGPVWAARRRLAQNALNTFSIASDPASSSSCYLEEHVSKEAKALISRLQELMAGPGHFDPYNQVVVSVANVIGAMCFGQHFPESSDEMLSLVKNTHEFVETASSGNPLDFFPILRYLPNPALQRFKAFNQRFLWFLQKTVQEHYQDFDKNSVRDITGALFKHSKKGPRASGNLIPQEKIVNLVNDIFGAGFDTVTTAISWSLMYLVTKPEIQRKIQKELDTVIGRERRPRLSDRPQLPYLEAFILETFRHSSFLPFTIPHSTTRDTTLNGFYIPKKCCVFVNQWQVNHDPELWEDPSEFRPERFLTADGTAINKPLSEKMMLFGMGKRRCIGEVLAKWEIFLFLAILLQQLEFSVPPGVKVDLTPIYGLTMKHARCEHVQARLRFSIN
Chain of CYP2C9 (P11712 whole entry): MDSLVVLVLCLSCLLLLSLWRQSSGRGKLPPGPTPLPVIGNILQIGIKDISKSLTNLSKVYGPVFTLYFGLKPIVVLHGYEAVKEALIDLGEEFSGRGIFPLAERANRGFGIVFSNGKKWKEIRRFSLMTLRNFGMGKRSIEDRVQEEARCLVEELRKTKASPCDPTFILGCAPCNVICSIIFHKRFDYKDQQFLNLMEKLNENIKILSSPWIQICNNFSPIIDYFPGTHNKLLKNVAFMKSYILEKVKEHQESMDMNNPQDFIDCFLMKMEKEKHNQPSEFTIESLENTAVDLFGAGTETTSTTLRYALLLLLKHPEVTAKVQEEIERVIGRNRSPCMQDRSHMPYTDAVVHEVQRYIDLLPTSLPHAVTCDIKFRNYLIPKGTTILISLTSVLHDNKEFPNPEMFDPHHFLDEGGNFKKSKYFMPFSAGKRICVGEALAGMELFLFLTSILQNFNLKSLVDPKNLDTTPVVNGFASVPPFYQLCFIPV
Chain of CYP1A1 (P04798 whole entry): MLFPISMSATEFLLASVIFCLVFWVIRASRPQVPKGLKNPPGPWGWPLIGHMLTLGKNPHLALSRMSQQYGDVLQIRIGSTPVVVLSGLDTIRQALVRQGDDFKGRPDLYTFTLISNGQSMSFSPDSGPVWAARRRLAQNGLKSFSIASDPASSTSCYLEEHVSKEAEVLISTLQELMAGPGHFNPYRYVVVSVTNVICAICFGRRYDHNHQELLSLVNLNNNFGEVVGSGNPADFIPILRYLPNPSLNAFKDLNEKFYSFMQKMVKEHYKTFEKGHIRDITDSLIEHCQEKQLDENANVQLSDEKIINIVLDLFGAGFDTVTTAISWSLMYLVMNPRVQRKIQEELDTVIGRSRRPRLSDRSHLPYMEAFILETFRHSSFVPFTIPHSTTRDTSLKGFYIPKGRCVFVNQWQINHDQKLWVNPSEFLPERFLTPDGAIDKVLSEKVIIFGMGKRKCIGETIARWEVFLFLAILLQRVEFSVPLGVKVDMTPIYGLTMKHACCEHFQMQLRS

As usually defined, the fraction unbound is the share of the substance not bound to proteins or other matrix. What is called IC50 is the concentration at which inhibition is half-maximal. `O=C1N=C(N2CCOCC2)CN1c1ccc(Cl)cc1` [Imepitoin, 1-(4-chlorophenyl)-4-morpholino-imidazolin-2-one]: in the data set with plasma protein (heparinized plasma), the fraction unbound at 15 min, 0.1 μg/mL was 0.43. In the data set with plasma protein (heparinized plasma), this compound had a fraction unbound at 15 min, 1 μg/mL of 0.41. For the same compound, the fraction unbound at 15 min, 10 μg/mL with plasma protein (heparinized plasma) was 0.43. The fraction unbound at 15 min with plasma protein (plasma (heparinized)) is 0.41 to 0.43. In addition, the IC50 was 55 µM on CYP1A1, above 100 µM on CYP2C9, above 100 µM at CYP1A2 and above 100 µM at CYP2D6. The “Inhibition of the specific cytochrome P450 isoform IC50, 2C9” value at CYP2C9 (recombinant human CYP2C9) is on record as “did not influence”. In the data set on CYP3A, the “induction of CYP3A” value was “did not induce”. Moreover, the “Inhibition of the specific cytochrome P450 isoform IC50, 1A2” value on CYP1A2 (recombinant human CYP1A2) is recorded as “did not influence”. In addition, the “radioactivity found in the washed precipitate (covalent binding)” value in the data set on plasma proteins is “less than 0.5%”. In addition, the “Inhibition of the specific cytochrome P450 isoform IC50, 2D6” value on CYP2D6 (recombinant human CYP2D6) is “did not influence”.
